Laboratory results: ChEMBL document CHEMBL4422623, “Synthesis of spiro-2,6-dioxopiperazine and spiro-2,6-dioxopyrazine scaffolds using amino acids in a three-component reaction to generate potential Sigma-1 (σ1) receptor selective ligands” (Eur J Med Chem, 2019)

Columns and labels:
[1] = target: 5-hydroxytryptamine receptor 2B (Homo sapiens, UniProt P41595); assay: Displacement of [3H]LSD from human 5-HT2B receptor expressed in HEK cells by radioligand binding assay; format: cell-based
Mu-type opioid receptor = Mu-type opioid receptor (Homo sapiens, UniProt P35372); assay: Displacement of [3H]DAMGO from human mu opioid receptor expressed in HEK cells by radioligand binding assay; format: cell-based
Sequence of Mu-type opioid receptor (P35372 whole entry): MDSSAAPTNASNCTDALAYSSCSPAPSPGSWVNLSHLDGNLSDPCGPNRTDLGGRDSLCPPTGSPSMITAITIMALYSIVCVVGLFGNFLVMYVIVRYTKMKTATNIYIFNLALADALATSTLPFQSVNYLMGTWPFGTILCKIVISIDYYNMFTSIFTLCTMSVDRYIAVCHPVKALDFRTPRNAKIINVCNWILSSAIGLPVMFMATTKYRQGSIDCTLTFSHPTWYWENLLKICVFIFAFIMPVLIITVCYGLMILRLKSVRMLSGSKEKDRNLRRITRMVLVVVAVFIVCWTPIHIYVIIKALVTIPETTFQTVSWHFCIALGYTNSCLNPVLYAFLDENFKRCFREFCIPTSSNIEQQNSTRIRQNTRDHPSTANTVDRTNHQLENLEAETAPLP

[2] = target: 5-hydroxytryptamine receptor 7 (Homo sapiens, UniProt P34969); assay: Displacement of [3H]LSD from human 5-HT7 receptor expressed in HEK cells by radioligand binding assay; format: cell-based
Sequence of 5-hydroxytryptamine receptor 7 (P34969 whole entry): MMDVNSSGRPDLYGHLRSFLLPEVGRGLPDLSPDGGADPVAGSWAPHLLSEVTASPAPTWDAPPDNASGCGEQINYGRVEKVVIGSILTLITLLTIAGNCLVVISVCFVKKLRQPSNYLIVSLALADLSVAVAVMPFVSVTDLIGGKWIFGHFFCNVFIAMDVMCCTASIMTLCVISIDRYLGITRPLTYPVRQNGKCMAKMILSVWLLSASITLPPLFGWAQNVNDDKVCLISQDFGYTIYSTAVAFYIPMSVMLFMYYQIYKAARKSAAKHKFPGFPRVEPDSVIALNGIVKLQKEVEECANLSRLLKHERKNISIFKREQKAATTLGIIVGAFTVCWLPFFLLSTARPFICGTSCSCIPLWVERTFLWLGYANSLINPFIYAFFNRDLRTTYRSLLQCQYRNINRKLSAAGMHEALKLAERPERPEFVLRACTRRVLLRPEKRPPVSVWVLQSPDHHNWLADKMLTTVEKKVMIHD

[3] = target: T1, Alpha-2A adrenergic receptor (Homo sapiens, UniProt P08913); assay: Displacement of […] from human adrenergic alpha 2A receptor expressed in MDCK cells by radioligand binding assay; format: cell-based
T1 sequence (P08913 whole entry): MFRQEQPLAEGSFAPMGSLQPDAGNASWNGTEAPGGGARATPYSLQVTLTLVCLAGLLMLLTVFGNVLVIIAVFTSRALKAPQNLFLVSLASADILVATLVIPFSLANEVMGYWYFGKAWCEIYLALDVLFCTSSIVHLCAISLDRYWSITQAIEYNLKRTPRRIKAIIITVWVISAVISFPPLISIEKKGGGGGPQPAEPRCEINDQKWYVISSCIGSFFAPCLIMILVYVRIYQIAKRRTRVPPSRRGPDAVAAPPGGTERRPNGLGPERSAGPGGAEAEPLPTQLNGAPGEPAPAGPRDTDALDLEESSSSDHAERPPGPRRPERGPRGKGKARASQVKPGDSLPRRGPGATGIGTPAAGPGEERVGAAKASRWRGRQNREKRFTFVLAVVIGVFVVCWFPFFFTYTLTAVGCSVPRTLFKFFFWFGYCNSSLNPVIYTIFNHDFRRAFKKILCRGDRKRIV

D(4) dopamine receptor = target: T2, D(4) dopamine receptor (Homo sapiens, UniProt P21917); assay: Displacement of [3H]N-methylspiperone from human D4 receptor by radioligand binding assay
T2 sequence (P21917 whole entry): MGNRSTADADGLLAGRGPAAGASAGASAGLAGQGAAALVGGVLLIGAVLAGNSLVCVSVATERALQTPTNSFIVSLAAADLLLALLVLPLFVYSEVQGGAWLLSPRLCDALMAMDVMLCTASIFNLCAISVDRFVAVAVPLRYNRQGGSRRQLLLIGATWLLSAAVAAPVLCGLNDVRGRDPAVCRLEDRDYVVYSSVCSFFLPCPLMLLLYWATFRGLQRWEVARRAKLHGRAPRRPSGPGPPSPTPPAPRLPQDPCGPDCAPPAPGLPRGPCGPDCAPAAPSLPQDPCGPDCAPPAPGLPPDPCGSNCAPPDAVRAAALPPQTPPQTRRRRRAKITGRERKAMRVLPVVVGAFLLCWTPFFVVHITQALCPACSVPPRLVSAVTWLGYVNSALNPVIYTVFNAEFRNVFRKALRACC

[4] = target: Sodium-dependent dopamine transporter (Homo sapiens, UniProt Q01959); assay: Displacement of [3H]WIN35428 from human DAT receptor expressed in HEK cells by radioligand binding assay; format: cell-based
Sequence of Sodium-dependent dopamine transporter (Q01959 whole entry): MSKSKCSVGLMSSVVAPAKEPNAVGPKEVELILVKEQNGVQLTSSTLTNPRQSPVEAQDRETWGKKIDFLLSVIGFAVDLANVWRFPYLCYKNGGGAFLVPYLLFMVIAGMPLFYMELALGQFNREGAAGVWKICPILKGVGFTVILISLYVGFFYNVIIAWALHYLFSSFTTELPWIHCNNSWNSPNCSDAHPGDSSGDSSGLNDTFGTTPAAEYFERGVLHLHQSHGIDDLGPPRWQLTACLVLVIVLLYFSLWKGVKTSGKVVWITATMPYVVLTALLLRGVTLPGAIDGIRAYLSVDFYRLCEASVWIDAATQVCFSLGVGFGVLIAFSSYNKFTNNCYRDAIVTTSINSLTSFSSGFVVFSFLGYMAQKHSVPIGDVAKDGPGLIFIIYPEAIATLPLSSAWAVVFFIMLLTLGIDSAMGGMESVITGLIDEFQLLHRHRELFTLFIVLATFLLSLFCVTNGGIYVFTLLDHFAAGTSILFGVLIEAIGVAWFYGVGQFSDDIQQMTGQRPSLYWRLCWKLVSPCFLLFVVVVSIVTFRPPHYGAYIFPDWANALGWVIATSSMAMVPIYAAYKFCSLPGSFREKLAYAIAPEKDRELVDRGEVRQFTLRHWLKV

Histamine H2 receptor = Histamine H2 receptor (Homo sapiens, UniProt P25021); assay: Binding affinity to human histamine 2 receptor expressed in HEK cells by radioligand binding assay; format: cell-based
Sequence of Histamine H2 receptor (P25021 whole entry): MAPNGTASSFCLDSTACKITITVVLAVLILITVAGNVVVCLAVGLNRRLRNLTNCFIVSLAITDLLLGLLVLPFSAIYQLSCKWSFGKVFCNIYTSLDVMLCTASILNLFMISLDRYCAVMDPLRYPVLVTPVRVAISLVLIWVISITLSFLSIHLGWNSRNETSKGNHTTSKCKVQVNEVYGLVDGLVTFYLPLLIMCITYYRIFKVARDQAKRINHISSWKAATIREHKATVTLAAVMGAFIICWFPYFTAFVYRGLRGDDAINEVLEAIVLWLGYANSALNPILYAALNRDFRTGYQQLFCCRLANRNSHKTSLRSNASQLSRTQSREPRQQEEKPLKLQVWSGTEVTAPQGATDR

[5] = target: Kappa-type opioid receptor (Homo sapiens, UniProt P41145); assay: Displacement of [3H]U69593 from human kappa opioid receptor expressed in HEK cells by radioligand binding assay; format: cell-based
Sequence of Kappa-type opioid receptor (P41145 whole entry): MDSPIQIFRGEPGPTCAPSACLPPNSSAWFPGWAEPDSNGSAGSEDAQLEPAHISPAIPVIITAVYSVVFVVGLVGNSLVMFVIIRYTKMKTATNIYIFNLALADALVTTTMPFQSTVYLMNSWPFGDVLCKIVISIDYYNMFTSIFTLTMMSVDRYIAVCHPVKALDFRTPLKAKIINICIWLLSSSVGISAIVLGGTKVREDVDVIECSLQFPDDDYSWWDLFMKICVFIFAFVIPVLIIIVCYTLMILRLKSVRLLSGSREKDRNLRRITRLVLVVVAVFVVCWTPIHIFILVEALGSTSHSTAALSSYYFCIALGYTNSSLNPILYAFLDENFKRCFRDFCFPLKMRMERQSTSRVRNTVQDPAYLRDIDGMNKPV

[6] = target: Sigma non-opioid intracellular receptor 1 (Cavia porcellus, UniProt Q60492); assay: Displacement of [3H]Pentazocine from guinea pig sigma-1 receptor by radioligand binding assay
Sequence of Sigma non-opioid intracellular receptor 1 (Q60492 whole entry): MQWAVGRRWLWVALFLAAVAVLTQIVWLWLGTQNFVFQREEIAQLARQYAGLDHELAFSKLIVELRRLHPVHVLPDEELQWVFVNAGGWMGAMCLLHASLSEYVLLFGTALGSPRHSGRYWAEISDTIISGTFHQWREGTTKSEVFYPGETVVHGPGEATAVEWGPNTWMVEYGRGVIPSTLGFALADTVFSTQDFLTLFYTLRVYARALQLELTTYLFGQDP

[7] = target: T3, Sigma intracellular receptor 2 (Rattus norvegicus, UniProt Q5U3Y7); assay: Displacement of [3H]DTG from sigma-2 receptor in rat PC12 cells by radioligand binding assay; format: cell-based
T3 sequence (Q5U3Y7 whole entry): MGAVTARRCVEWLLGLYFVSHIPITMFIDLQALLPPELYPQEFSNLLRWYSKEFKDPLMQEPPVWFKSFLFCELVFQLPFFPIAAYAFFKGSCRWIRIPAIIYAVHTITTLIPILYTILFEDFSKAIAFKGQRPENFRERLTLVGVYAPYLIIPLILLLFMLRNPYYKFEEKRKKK

Sequence of 5-hydroxytryptamine receptor 2B (P41595 whole entry): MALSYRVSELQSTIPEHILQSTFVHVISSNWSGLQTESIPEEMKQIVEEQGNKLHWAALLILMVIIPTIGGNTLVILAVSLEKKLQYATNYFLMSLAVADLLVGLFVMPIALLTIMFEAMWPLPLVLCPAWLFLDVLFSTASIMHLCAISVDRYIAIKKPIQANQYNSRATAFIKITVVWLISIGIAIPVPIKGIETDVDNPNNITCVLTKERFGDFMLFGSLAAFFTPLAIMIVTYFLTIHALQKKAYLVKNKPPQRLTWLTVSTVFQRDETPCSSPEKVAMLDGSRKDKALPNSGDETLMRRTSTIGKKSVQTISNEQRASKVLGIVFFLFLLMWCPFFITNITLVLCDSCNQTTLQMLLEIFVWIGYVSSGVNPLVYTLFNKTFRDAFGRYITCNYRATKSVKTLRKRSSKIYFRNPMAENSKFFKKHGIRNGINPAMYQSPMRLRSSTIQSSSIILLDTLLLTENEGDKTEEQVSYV

| Compound | Ki [1] | Ki (Mu-type opioid receptor) | Ki [2] | Ki [3] | Ki (D(4) dopamine receptor) | Ki [4] | Ki (Histamine H2 receptor) | Ki [5] | Ki [6] | Ki [7] |
| --- | --- | --- | --- | --- | --- | --- | --- | --- | --- | --- |
| Cc1cccc(C)c1N1C(=O)CNC2(CCN(C)CC2)C1=O | 0.742 µM | 10 µM | – | – | – | – | – | – | – | – |
| CC1=NC2(CCN(C)CC2)C(=O)N(c2c(C)cccc2C)C1=O | 0.231 µM | – | 2.77 µM | 3.36 µM | 1.28 µM | 2.56 µM | 0.823 µM | 1.71 µM | 0.0086 µM | 0.696 µM |
| Cc1cccc(C)c1N1C(=O)[C@H](CO)NC2(CCN(C)CC2)C1=O | 2.05 µM | 1.63 µM | – | – | – | – | – | – | – | – |
| Cc1cccc(C)c1N1C(=O)[C@H](CC2CNc3ccccc32)NC2(CCN(C)CC2)C1=O (stereo partly specified) | 0.84 µM | 0.993 µM | – | – | – | – | 0.546 µM | – | – | – |
